Where two headings read alike, the source gives them in different places.
Columns and labels:
CYP2D6 = CYP2D6 (Homo sapiens, UniProt P10635); experiment: Time-dependent CYP inhibition in pooled human liver microsomes; type: in vitro ADME
MATE2K = target: T1, MATE2K (Homo sapiens, UniProt Q86VL8); experiment: Islatravir uptake as substrate, MDCKII vs MDCKII-MATE2K cells; type: in vitro ADME
T1 construct: expressed in transfected cells; host or cells: MDCKII

[1] = cited from earlier work
CYP2C9 = CYP2C9 (Homo sapiens, UniProt P11712); experiment: Reversible CYP inhibition in pooled human liver microsomes; type: in vitro ADME
OAT1 = target: T2, OAT1 (Homo sapiens, UniProt Q4U2R8); experiment: Inhibition of transporter-mediated probe uptake in MDCKII-OAT1 cells; type: in vitro ADME
T2 construct: expressed in transfected cells; host or cells: MDCKII
T2 sequence (Q4U2R8 1-563): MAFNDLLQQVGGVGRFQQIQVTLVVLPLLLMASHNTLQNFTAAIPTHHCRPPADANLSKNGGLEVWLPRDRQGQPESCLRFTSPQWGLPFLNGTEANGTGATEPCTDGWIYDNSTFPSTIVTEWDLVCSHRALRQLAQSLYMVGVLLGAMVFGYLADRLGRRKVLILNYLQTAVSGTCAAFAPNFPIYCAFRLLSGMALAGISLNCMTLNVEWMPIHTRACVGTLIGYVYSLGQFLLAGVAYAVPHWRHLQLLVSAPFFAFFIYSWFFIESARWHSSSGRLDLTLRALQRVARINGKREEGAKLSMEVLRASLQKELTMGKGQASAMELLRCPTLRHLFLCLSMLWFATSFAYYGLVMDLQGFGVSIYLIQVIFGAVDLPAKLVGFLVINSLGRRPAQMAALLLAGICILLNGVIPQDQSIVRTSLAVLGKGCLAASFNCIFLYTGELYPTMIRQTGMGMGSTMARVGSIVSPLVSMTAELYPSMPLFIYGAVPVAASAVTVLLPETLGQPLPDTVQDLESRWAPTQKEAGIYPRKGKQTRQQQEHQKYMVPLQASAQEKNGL

[2] = Projected human exposure for a 60 mg oral dose
[3] = Renal clearance after 1 mg/kg intravenous, rat; type: in vivo, male Wistar-Hannover rats; conditions: 1 mg/kg intravenously
CYP2B6 = target: T3, CYP2B6 (Homo sapiens, UniProt P20813); experiment: Time-dependent CYP inhibition in pooled human liver microsomes; type: in vitro ADME
T3 sequence (P20813 1-491): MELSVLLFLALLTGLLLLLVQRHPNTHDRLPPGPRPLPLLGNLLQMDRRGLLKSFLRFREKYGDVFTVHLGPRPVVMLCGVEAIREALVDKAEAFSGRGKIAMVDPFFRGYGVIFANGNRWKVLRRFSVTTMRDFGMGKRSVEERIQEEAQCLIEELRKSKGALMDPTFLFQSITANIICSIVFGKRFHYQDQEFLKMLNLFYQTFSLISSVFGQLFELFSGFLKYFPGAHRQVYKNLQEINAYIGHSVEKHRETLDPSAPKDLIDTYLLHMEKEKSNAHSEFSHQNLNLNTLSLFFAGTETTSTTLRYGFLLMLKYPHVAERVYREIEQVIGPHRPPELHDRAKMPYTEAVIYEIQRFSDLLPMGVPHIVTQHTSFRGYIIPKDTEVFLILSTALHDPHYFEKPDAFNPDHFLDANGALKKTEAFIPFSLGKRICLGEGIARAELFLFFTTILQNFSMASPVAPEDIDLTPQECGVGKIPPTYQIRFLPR

CYP2C8 = target: T4, CYP2C8 (Homo sapiens, UniProt P10632); experiment: as above; type: in vitro ADME
T4 sequence (P10632 1-490): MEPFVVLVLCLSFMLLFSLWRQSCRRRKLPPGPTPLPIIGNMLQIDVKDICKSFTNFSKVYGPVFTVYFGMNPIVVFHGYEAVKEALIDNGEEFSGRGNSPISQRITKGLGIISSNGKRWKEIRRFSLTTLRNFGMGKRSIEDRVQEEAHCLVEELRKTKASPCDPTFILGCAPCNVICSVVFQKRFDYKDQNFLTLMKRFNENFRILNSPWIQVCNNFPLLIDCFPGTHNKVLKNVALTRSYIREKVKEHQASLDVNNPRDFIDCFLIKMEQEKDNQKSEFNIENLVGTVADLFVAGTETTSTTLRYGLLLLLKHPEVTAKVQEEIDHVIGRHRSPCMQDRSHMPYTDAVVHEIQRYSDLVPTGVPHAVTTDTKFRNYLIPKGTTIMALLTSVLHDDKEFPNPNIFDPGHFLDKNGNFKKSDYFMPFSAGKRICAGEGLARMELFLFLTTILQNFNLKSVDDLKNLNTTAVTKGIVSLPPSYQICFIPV

[4] = Plasma protein binding by equilibrium dialysis, monkey plasma; type: in vitro ADME; conditions: pH 7.4

Sequence of CYP2C9 (P11712 whole entry): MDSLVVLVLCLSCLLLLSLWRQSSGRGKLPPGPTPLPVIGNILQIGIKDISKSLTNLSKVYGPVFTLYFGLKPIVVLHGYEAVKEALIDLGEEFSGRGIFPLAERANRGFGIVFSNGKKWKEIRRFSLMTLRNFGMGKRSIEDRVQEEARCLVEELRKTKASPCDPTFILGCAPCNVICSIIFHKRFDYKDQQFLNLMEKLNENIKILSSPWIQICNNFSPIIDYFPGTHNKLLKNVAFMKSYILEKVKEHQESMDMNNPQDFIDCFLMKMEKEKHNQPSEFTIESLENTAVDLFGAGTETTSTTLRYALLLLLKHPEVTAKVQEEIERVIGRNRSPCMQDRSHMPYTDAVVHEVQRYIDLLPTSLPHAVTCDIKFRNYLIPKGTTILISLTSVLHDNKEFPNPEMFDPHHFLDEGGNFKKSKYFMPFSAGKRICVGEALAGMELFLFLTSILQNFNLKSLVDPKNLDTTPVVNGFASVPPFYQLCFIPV
T1 sequence (Q86VL8 1-566 isoform Q86VL8-3): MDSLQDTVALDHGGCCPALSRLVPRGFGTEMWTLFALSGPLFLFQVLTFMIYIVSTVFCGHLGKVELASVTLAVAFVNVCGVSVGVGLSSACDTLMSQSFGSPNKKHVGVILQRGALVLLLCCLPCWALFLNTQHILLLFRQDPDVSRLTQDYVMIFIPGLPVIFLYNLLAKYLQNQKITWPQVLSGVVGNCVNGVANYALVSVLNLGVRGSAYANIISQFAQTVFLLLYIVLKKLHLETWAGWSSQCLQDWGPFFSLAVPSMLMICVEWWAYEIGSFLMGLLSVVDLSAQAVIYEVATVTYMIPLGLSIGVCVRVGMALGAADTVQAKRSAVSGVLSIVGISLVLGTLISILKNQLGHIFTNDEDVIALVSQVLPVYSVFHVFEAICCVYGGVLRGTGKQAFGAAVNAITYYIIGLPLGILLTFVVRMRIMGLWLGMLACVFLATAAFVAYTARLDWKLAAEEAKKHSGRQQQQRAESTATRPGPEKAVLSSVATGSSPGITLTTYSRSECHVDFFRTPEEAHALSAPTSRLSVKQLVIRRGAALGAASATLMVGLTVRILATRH
Sequence of CYP2D6 (P10635 whole entry): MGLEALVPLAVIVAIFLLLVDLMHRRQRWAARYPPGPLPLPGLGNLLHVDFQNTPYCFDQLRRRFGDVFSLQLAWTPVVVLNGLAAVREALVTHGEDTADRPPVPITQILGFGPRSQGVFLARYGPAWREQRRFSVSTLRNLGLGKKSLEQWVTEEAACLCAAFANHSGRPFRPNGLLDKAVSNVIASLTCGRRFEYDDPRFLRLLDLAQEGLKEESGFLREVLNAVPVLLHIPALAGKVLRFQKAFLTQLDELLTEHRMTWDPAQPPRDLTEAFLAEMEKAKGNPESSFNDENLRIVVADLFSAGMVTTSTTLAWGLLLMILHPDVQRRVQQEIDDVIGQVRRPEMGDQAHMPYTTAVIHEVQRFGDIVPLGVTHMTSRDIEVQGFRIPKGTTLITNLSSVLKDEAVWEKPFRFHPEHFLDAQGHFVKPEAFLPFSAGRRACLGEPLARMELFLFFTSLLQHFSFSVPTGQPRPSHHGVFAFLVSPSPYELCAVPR

Question: For `C#C[C@]1(CO)O[C@@H](n2cnc3c(N)nc(F)nc32)C[C@@H]1O` [Islatravir, 4′-Ethynyl-2-fluoro-2′-deoxyadenosine], which time-dependent inhibition (CYP2D6; CYP2D6, pre-incubation of 10 and 50 µM for up to 30 min) is on record?
Answer: no time-dependent inhibition

Question: What about the “DDI Potential” value (CYP2D6; CYP2D6 time dependent inhibition) of the same molecule?
Answer: Low risk ^h

Question: And the IC50 (CYP2D6; time dependent, CYP2D6, read-out: Islatravir IC50)?
Answer: > 50 µM

Question: What about the “Islatravir Uptake Control Cells” value (MATE2K; MATE2K row, MDCKII control cells, 2 µM [14C]islatravir, 20 min, mean ± SD, n = 3) of the same molecule?
Answer: 3.12 ± 0.17 pmole/10^6 Cells

Question: And the Conclusions (MATE2K; MATE2K substrate assessment)?
Answer: Non-substrate

Question: And the Fold-Difference (MATE2K; MATE2K, uptake into transporter-expressing cells to control cells, 20 min)?
Answer: 1.14

Question: What about the “Islatravir Uptake Transporter-Expressing Cells” value (MATE2K; MDCKII-MATE2K, 2 µM [14C]islatravir, 20 min, mean ± SD, n = 3) of the same molecule?
Answer: 3.56 ± 0.17 pmole/10^6 Cells

Question: What about the “drug-drug interaction, PK” value ([1]; co-administered with doravirine) of the same molecule?
Answer: no clinically meaningful effects on the PK of either drug

Question: And the drug-drug interaction ([1]; co-administration with levonorgestrel/ethinyl estradiol)?
Answer: No significant drug–drug interactions

Question: And the “drug-drug interaction, PK” value ([1]; with tenofovir disoproxil fumarate and dolutegravir)?
Answer: no meaningful drug–drug interactions

Question: And the “DDI Potential” value (CYP2C9; CYP2C9 reversible inhibition, FDA, EMA, PMDA guidance)?
Answer: Low risk

Question: And the “Maximum Unbound Plasma Concentration (Imax,u) to Ki,u Ratio” value (CYP2C9; CYP2C9 reversible, 60 mg, Cmax 1.01 µM, fu,p 0.96, Ki,u = IC50/2)?
Answer: <0.019 µM

Question: And the IC50 (CYP2C9; reversible, CYP2C9 diclofenac 4′-hydroxylation, read-out: Islatravir IC50)?
Answer: > 100 µM

Question: What about the IC50 (OAT1; OAT1-mediated cidofovir uptake, read-out: Islatravir IC50) of the same molecule?
Answer: > 100 µM

Question: What about the “Maximum Unbound Plasma Concentration (Imax,u) to IC50 Ratio” value (OAT1; OAT1, 60 mg, Cmax 1.01 µM, fu,p 0.96) of the same molecule?
Answer: <0.010 µM

Question: And the “DDI Potential” value (OAT1; OAT1 inhibition, FDA, EMA, PMDA guidance)?
Answer: Low risk

Question: What about the “projected maximum free concentration at the liver inlet” value [2] of the same molecule?
Answer: approximately 10 µM

Question: What about the “Renal Excretion (% Total Plasma Clearance)” value [3] of the same molecule?
Answer: 17%

Question: And the CL renal ([3]; male, Wistar-Hannover, plasma and urine, iv, urine 0-24 h)?
Answer: 11.5 mL/min/kg

Question: What about the time-dependent inhibition (CYP2B6; CYP2B6, pre-incubation of 10 and 50 µM for up to 30 min) of the same molecule?
Answer: no time-dependent inhibition

Question: What about the “DDI Potential” value (CYP2B6; CYP2B6 time dependent inhibition) of the same molecule?
Answer: Low risk ^h

Question: What about the IC50 (CYP2B6; time dependent, CYP2B6, read-out: Islatravir IC50) of the same molecule?
Answer: > 50 µM

Question: What about the time-dependent inhibition (CYP2C8; CYP2C8, pre-incubation of 10 and 50 µM for up to 30 min) of the same molecule?
Answer: no time-dependent inhibition

Question: And the “DDI Potential” value (CYP2C8; CYP2C8 time dependent inhibition)?
Answer: Low risk ^h

Question: And the IC50 (CYP2C8; time dependent, CYP2C8, read-out: Islatravir IC50)?
Answer: > 50 µM

Question: What about the fraction unbound at 24 h, 0.1 µM [4] of the same molecule?
Answer: > 0.84

From PMC8402619 (Viruses, 2021)
